According to patent publication US7728105B2, “Peptides impairing PBX dependent gene regulation” (St. George's Hospital Medical School, priority 2002, dated 2010):
“Also recorded” adds a separate entry of the source.

Legend:
Type in all cases: cell-based, human
[1] = test system: KG1a, KG1, HL60 and U937 cells; experiment: Cell cycle analysis (propidium iodide, flow cytometry) of leukaemic cell lines (Example 1)
Method: (§1) Cells to be investigated were harvested and washed in PBS at 400 g for 10 min. Pelleted cells were then fixed in ice-cold 70% ethanol. Fixed cells were subsequently washed twice in PBS (600 g; 10 min) and incubated in 100 μl of ribonuclease (100 μg/ml; Sigma Aldrich) for 5 min (room temperature) prior to addition of 400 μl of propidium iodide (50 μg/ml; Sigma Aldrich) and 30 minutes incubation (37° C.). Cells were then analysed for cell cycle status on FACScan flow cytometer (Becton Dickinson, USA) and using WinMDI and Cylchred softwares.

CD133+ cells [2] = experiment: RT-PCR of HOX-PBX target genes in CD133+ cells
Method: Total RNA was isolated from liquid nitrogen snap-frozen cells using RNeasy Mini Kit protocol (Qiagen, Crawley, UK). 50 μl reverse transcription reactions using 1 μg of RNA per reaction heated at 75° C. cDNA with 1 μg of oligo-dT for 10 mins. Samples were cooled on ice and mixed with 200 units of M-MLV reverse transcriptase (Promega, Southampton, UK) in its associated buffer, 400 μM of dNTPs (Promega), and 40 units of RNAseout (Invitrogen, Paisley, UK). Samples were then incubated at 37° C. for one hour and finally heated at 75° C. for 5 mins. PCR reactions (35 cycles, 94° C. 30 sec, 55° C. 30 sec, 72° C. 1 min) were carried out in a 20 μl reaction using JumpStart ReadyMix REDTaq DNA polymerase (Sigma-Aldrich) using an identical amount of cDNA per reaction with 1 μM of forward and reverse primers.

CD133+ cells [3] = experiment: CD133+ cell proliferation in cytokine supplemented liquid culture over 18 days
Method: (§2) CD133+ cells (another name for AC133+ cells) were seeded in duplicate at 4×10^4 cells/ml in IMDM (Life Technologies), 10% FCS (Sigma Aldrich) and gentamycin (50 μg/ml Life Technologies) and Thrombopoietin (TPO) 10 ng/ml, Flt3-Ligand (FL) 50 ng/ml & c-KitL (K) 20 ng/ml), all obtained from R and D systems Ltd., UK. (Forraz et al., 2002). The HXP peptide (N-term: WYPWMKKHHRQIKIWFQNRRMKWKK: C-term; Eurogentec, Belgium) and control CXP peptide (N-term: WCCLADRHGRQIKIWFQNRRMKWKK: C-term; Eurogentec, Belgium) were added to culture medium at a concentration of 20 μg/ml. To withdraw peptides from culture, cells were washed twice in IMDM or RPMI and reseeded at prewash cell densities. Primary cells were cultured for 3 weeks at 37° C., 5% CO2 in humidified atmosphere and enumerated by a […] exclusion method with a heamocytometer.

AC133+ cells = experiment: Short-term ex-vivo AC133+ cell expansion culture with HXP peptide, trypan blue cell count
Method: Umbilical Cord Blood (UCB) specimens were collected from full-term deliveries scheduled for elective caesarian sections following hospital ethical regulations.
Samples were diluted 1 in 4 in PBS supplemented with a citrate-based anti-coagulant (0.6% ACD-A, Baxter, France) and Bovine Serum Albumin (0.5% fraction V, Sigma Aldrich, UK) at pH=7.4 and referenced as “ACD-A buffer”. Diluted UCB was carefully overlaid in a 1:4 ratio onto a research grade Ficoll-Paque solution (d:1.077 g/cm^3, Pharmacia Biotech, Sweden) prior to Centrifugation (400 g, 30 minutes, 22° C.). The mononuclear cells (MNC) layer was extracted, washed twice in ACD-A Buffer, pelleted (400 g, 10 minutes) before resuspending in ACD-A buffer and cell aliquots taken for cell viability/enumeration using trypan blue (Sigma Aldrich).
AC133+ cells were obtained from MNC after immunomagnetic separation using the AC133 mini-MACS selection kit (Miltenyi Biotec, Germany): labelling volume 500 μl/10^8 cells in ACD-A buffer containing Fc Receptor-blocking reagent (100 μl, 5 min incubation, 4° C.) before adding colloidal super-paramagnetic MACS MicroBeads conjugated to monoclonal mouse anti-human AC133/1 antibody (100 μl IgG1 isotype, 25 min incubation, 4° C.). Cells were then washed (5 ml ACD-A buffer, 400 g, 10 min, 4° C.) before resuspended cells in 500 μl ACD-A buffer were applied to a chilled MACS positive selection column (MS+/RS+) on a magnet. The column was rinsed with cool ACD-A buffer (4×500 μl) and the AC133− cell population retained at 4° C. After magnet removal AC133+ cells were eluted with 1 ml of cold ACD-A buffer. The AC133+ cell fraction was reapplied to a new column, prior to cell enumeration and viability assays.
AC133+ cells were seeded in duplicate in liquid culture system at 2-4×10^4 cells/ml. […] Cultured cells were then counted at various time points using trypan blue exclusion method described above.

[4] = test system: leukaemic cell lines KG1a, KG1, HL60 and U937; experiment: Leukaemic cell lines culture, trypan blue cell count (Example 1); conditions: 20 μg/ml
Method: KG1a, KG1, HL60 and U937 cell lines were obtained from the ATCC (catalogue Nos. CCL-246.1, CCL-246, CCL-240 and CRL-1593.2, respectively.
Cell lines were seeded at 1-5×10^5 cells/ml in liquid culture system made of RPMI-1640 medium (Life Technologies, UK) supplemented with Foetal Calf Serum (10% Sigma Aldrich) and gentamycin (50 μg/ml, Life Technologies) and at least in duplicate. When required the HXP peptide was added to the medium (20 μg/ml). Cell lines were cultured for up to 7 days at 37° C., 5% CO2 in humidified atmosphere. Cultured cells were then counted at various time points using trypan blue exclusion method described above.

CD133+ cells [5] = experiment: Cell cycle status of CD133+ cells (G0-G1)
Method: as §1, §2

## WYPWMKKHHRQIKIWFQNRRMKWKK [HXP peptide]
[1]; HL60 and U937
  effect on cell cycle of more mature leukaemic cells: slowed
[1]; KG1 and KG1a
  effect on cell cycle of immature leukaemic cells: may be propelled into the cell cycle
CD133+ cells [2]; 18 days
  CD38 gene expression: up-regulated
  expression of HOX-PBX target genes (CDC25, CDK2, N-Ras, Ras-like GTP binding protein, MMP19, MMP1, MAPK, RAB27A, Bak2, p53, CTCF, EIF4E, CD133, CD34, TERT, HOX B4, B8 and A9): significantly down regulated
CD133+ cells [2]; withdrawal at day 7
  expression of HOX-PBX target genes after withdrawing HXP peptide: up-regulation of all of these genes with the exception of MAPK
CD133+ cells [3]; day 18, 20 μg/ml, average, p<0.001
  inhibition of CD133+ cell growth compared to CXP peptide-treated cells: 3.7 fold
CD133+ cells [3]; withdrawal at day 7, compared to 18 day-HXP peptide treated cells, p<0.01
  CD133+ cell proliferation after withdrawal of HXP peptide: resumption of cell proliferation
AC133+ cells; 20 μg/ml, TPOFLK supplemented liquid culture
  cell growth of AC133+ cells: slowing their growth; also recorded: slowed
AC133+ cells; withdrawal at 7 days
  AC133+ cell proliferation after withdrawal of HXP peptide: started to proliferate again
[4]
  inhibition of leukaemic cell lines (cell growth): inhibits
CD133+ cells [5]; compared to the HXP peptide-treated group
  proportion of cells in phase G0-G1 upon withdrawing HXP peptide: lower proportion of cells remained in phase G0-G1
CD133+ cells [5]; day 18 of culture, vs CXP4 treated cells, p<0.05
  more cells in phase G0-G1 of the cell cycle than the control group: 9.9%
